Measurements as given in paper PMC9301601 (Frontiers in Pharmacology, 2022).

System: hiPSC-CMs
Assay: Action potential recording in hiPSC-CMs, whole-cell patch-clamp (current-clamp)
Format: cell-based, human
Conditions: LPV-treated hiPSC-CMs, Figure 6H

`Cc1cccc(C)c1OCC(=O)N[C@@H](Cc1ccccc1)[C@@H](O)C[C@H](Cc1ccccc1)NC(=O)[C@H](C(C)C)N1CCCNC1=O` [LPV, lopinavir] was tested, and the “Interval (spontaneous rate interval)” value was 1.4 ± 0.3 s.
